Row | SMILES | melting point [°C]
1 | Cc1nc(N2CCN(Cc3ncoc3-c3ccccc3)C2=O)sc1C(=O)NCc1cccnc1 [Example 32.5, 4-methyl-2-(2-oxo-3-((5-phenyloxazol-4-yl)methyl)imidazolidin-1-yl)-N-(pyridin-3-ylmethyl)thiazole-5-carboxamide] | 78 to 81
2 | Cc1nc(N2CCN(Cc3ccc4nonc4c3)C2=O)sc1C(=O)NCc1cccnc1 [Example 32.6, 2-(3-(benzo[c][1,2,5]oxadiazol-5-ylmethyl)-2-oxoimidazolidin-1-yl)-4-methyl-N-(pyridin-3-ylmethyl)thiazole-5-carboxamide] | 110 to 112
3 | Cc1nc(N2CCN(Cc3ccc4nsnc4c3)C2=O)sc1C(=O)NCc1cccnc1 [Example 32.7, 2-(3-(benzo[c][1,2,5]thiadiazol-5-ylmethyl)-2-oxoimidazolidin-1-yl)-4-methyl-N-(pyridin-3-ylmethyl)thiazole-5-carboxamide] | 105 to 107
4 | Cc1nc(N2CCN(Cc3cccnc3)C2=O)sc1C(=O)NCc1ccccc1 [Example 32.9, N-benzyl-4-methyl-2-(2-oxo-3-(pyridin-3-ylmethyl)imidazolidin-1-yl)thiazole-5-carboxamide] | 110 to 113
5 | Cc1cnc(CNC(=O)c2sc(N3CCN(Cc4ccc(F)cc4)C3=O)nc2C)cn1 [Example 32.10, 2-(3-(4-fluorobenzyl)-2-oxoimidazolidin-1-yl)-4-methyl-N-((5-methylpyrazin-2-yl)methyl)thiazole-5-carboxamide] | 191 to 193
6 | Cc1nc(N2CCN(Cc3ccc(F)cc3)C2=O)sc1C(=O)NCc1ncco1 [Example 32.11, 2-(3-(4-fluorobenzyl)-2-oxoimidazolidin-1-yl)-4-methyl-N-(oxazol-2-ylmethyl)thiazole-5-carboxamide] | 187 to 189
7 | Cc1ncc(CNC(=O)c2sc(N3CCN(Cc4ccc(F)cc4)C3=O)nc2C)s1 [Example 32.12, 2-(3-(4-fluorobenzyl)-2-oxoimidazolidin-1-yl)-4-methyl-N-((2-methylthiazol-5-yl)methyl)thiazole-5-carboxamide] | 213 to 215
8 | Cc1nc(N2CCN(Cc3ccc(F)cc3)C2=O)sc1C(=O)NCc1cnn(C)c1 [Example 32.13, 2-(3-(4-fluorobenzyl)-2-oxoimidazolidin-1-yl)-4-methyl-N-((1-methyl-1H-pyrazol-4-yl)methyl)thiazole-5-carboxamide] | 173 to 175
9 | Cc1nc(N2CCN(Cc3ccc(F)cc3)C2=O)sc1C(=O)NCc1ccncn1 [Example 32.14, 2-(3-(4-fluorobenzyl)-2-oxoimidazolidin-1-yl)-4-methyl-N-(pyrimidin-4-ylmethyl)thiazole-5-carboxamide] | 175 to 176
10 | Cc1nc(N2CCN(Cc3ccc(F)cc3)C2=O)sc1C(=O)NCc1cccnn1 [Example 32.15, 2-(3-(4-fluorobenzyl)-2-oxoimidazolidin-1-yl)-4-methyl-N-(pyridazin-3-ylmethyl)thiazole-5-carboxamide] | 222 to 225
11 | Cc1nc(N2CCN(Cc3ccc(F)cc3)C2=O)sc1C(=O)NCc1ncccn1 [Example 32.16, 2-(3-(4-fluorobenzyl)-2-oxoimidazolidin-1-yl)-4-methyl-N-(pyrimidin-2-ylmethyl)thiazole-5-carboxamide] | 205 to 207
12 | Cc1nc(N2CCN(Cc3ccc(F)cc3)C2=O)sc1C(=O)NCc1cnccn1 [Example 32.17, 2-(3-(4-fluorobenzyl)-2-oxoimidazolidin-1-yl)-4-methyl-N-(pyrazin-2-ylmethyl)thiazole-5-carboxamide] | 185 to 187
13 | Cc1nc(N2CCN(Cc3ccc(F)cc3)C2=O)sc1C(N)=O [Example 32.18, 2-(3-(4-fluorobenzyl)-2-oxoimidazolidin-1-yl)-4-methylthiazole-5-carboxamide] | 201 to 203
14 | CNC(=O)c1sc(N2CCN(Cc3ccc(F)cc3)C2=O)nc1C [Example 32.19, 2-(3-(4-fluorobenzyl)-2-oxoimidazolidin-1-yl)-N,4-dimethylthiazole-5-carboxamide] | 225 to 227
15 | Cc1nc(N2CCN(CCc3c[nH]c4ccccc34)C2=O)sc1C(=O)NCc1cccnc1 [Example 32.20, 2-(3-(2-(1H-indol-3-yl)ethyl)-2-oxoimidazolidin-1-yl)-4-methyl-N-(pyridin-3-ylmethyl)thiazole-5-carboxamide] | 198 to 201
16 | Cc1nc(N2CCN(Cc3ccc(F)cc3)C2=O)sc1C(=O)NCc1ccccn1 [Example 32.21, 2-(3-(4-fluorobenzyl)-2-oxoimidazolidin-1-yl)-4-methyl-N-(pyridin-2-ylmethyl)thiazole-5-carboxamide] | 183 to 185
17 | Cc1nc(N2CCN(Cc3ccc(F)cc3)C2=O)sc1C(=O)N(C)C [Example 32.22, 2-(3-(4-fluorobenzyl)-2-oxoimidazolidin-1-yl)-N,N,4-trimethylthiazole-5-carboxamide] | 162 to 164
18 | Cc1nc(N2CCN(Cc3ccc(F)cc3)C2=O)sc1C(=O)NCc1ccncc1 [Example 32.23, 2-(3-(4-fluorobenzyl)-2-oxoimidazolidin-1-yl)-4-methyl-N-(pyridin-4-ylmethyl)thiazole-5-carboxamide] | 146 to 149

Row | SMILES | melting point [°C]
19 | Cc1nc(N2CCN(CC3CC3)C2=O)sc1C(=O)NCc1ccccn1 [Example 32.24, 2-(3-(cyclopropylmethyl)-2-oxoimidazolidin-1-yl)-4-methyl-N-(pyridin-2-ylmethyl)thiazole-5-carboxamide] | 148 to 151
20 | Cc1nc(N2CCCN(Cc3ccc(F)cc3)C2=O)sc1C(=O)NCc1cccnc1 [Example 32.25, 2-(3-(4-fluorobenzyl)-2-oxotetrahydropyrimidin-1(2H)-yl)-4-methyl-N-(pyridin-3-ylmethyl)thiazole-5-carboxamide] | 48 to 50
21 | Cc1nc(N2CCCN(CC3CC3)C2=O)sc1C(=O)NCc1cccnc1 [Example 32.26, 2-(3-(cyclopropylmethyl)-2-oxotetrahydropyrimidin-1(2H)-yl)-4-methyl-N-(pyridin-3-ylmethyl)thiazole-5-carboxamide] | 142 to 145
22 | Cc1nc(N2CCN(Cc3ccncc3)C2=O)sc1C(=O)NCc1cccnc1 [Example 33, 4-methyl-2-(2-oxo-3-(pyridin-4-ylmethyl)imidazolidin-1-yl)-N-(pyridin-3-ylmethyl)thiazole-5-carboxamide] | 233 to 235
23 | Cc1nc(N2CCN(C(=O)c3ccc(F)cc3)C2=O)sc1C(=O)NCc1ccccc1 [Example 34, N-benzyl-2-(3-(4-fluorobenzoyl)-2-oxoimidazolidin-1-yl)-4-methylthiazole-5-carboxamide] | 130 to 132
24 | Cc1nc(N2CCN(Cc3ccc(C(F)(F)F)cc3)C2=O)sc1-c1cc[nH]n1 [Example 38, 1-(4-methyl-5-(1H-pyrazol-3-yl)thiazol-2-yl)-3-(4-(trifluoromethyl)-benzyl)imidazolidin-2-one] | 212 to 213
25 | Cc1cc(-c2sc(N3CCN(Cc4ccc(C(F)(F)F)cc4)C3=O)nc2C)n[nH]1 [Example 38.2, 1-(4-methyl-5-(5-methyl-1H-pyrazol-3-yl)thiazol-2-yl)-3-(4-(trifluoromethyl)benzyl)imidazolidin-2-one] | 238 to 239
26 | Cc1cc(-c2sc(N3CCN(Cc4ccc(C(F)(F)F)cc4)C3=O)nc2C)on1 [Example 38.3, 1-(4-methyl-5-(3-methylisoxazol-5-yl)thiazol-2-yl)-3-(4-(trifluoromethyl)benzyl)imidazolidin-2-one] | 201 to 203
27 | Cc1cc(-c2sc(N3CCN(Cc4ccc(C(=O)N5CCCCC5)cc4)C3=O)nc2C)n[nH]1 [Example 40, 1-(4-methyl-5-(3-methyl-1H-pyrazol-5-yl)thiazol-2-yl)-3-(4-(piperidine-1-carbonyl)benzyl)imidazolidin-2-one] | 182 to 183
28 | Cc1cc(-c2sc(N3CCN(Cc4ccc(F)cc4)C3=O)nc2C)n[nH]1 [Example 40.1, 1-(4-fluorobenzyl)-3-(4-methyl-5-(5-methyl-1H-pyrazol-3-yl)thiazol-2-yl)imidazolidin-2-one] | 218 to 221
29 | CNC(=O)c1ccc(CN2CCN(c3nc(C)c(-c4cc(C)[nH]n4)s3)C2=O)cc1 [Example 40.2, N-methyl-4-((3-(4-methyl-5-(3-methyl-1H-pyrazol-5-yl)thiazol-2-yl)-2-oxoimidazolidin-1-yl)methyl)benzamide] | 236 to 238
30 | Cc1nc(N2CCN(Cc3ccc(C(F)(F)F)cc3)C2=O)sc1CO [Example 41, 1-(5-(hydroxymethyl)-4-methylthiazol-2-yl)-3-(4-(trifluoromethyl)benzyl)imidazolidin-2-one] | 153 to 154
31 | Cc1nc(N2CCN(Cc3ccc(C(F)(F)F)cc3)C2=O)sc1-c1cnco1 [Example 43, 1-(4-methyl-5-(oxazol-5-yl)thiazol-2-yl)-3-(4-(trifluoromethyl)benzyl)-imidazolidin-2-one] | 160 to 162
32 | Cc1nc(-n2cnn(CCNCc3ccc(F)cc3)c2=O)sc1C(=O)NCc1cccnc1 [Example 47, 2-(1-(2-(4-fluorobenzylamino)ethyl)-5-oxo-1H-1,2,4-triazol-4(5H)-yl)-4-methyl-N-(pyridin-3-ylmethyl)thiazole-5-carboxamide] | 106 to 107
33 | Cc1nc(-n2cnn(CCNc3ccc(F)cc3)c2=O)sc1C(=O)NCc1cccnc1 [Example 47.1, 2-(1-(2-(4-fluorophenylamino)ethyl)-5-oxo-1H-1,2,4-triazol-4(5H)-yl)-4-methyl-N-(pyridin-3-ylmethyl)thiazole-5-carboxamide] | 163 to 164
34 | Cc1nc(-n2cnn(CCOC(=O)NCc3ccc(F)cc3)c2=O)sc1C(=O)NCc1cccnc1 [Example 48, 2-(4-(4-methyl-5-(pyridin-3-ylmethylcarbamoyl)thiazol-2-yl)-5-oxo-4,5-dihydro-1H-1,2,4-triazol-1-yl)ethyl 4-fluorobenzylcarbamate] | 149 to 150
35 | Cc1nc(-n2cnn(CCOCc3ccc(F)cc3)c2=O)sc1C(=O)NCc1cccnc1 [Example 49, 2-(1-(2-(4-fluorobenzyloxy)ethyl)-5-oxo-1H-1,2,4-triazol-4(5H)-yl)-4-methyl-N-(pyridin-3-ylmethyl)thiazole-5-carboxamide] | 235 to 236
